Reference: ChEMBL document CHEMBL1201862, “PubChem BioAssay data set” (2004)
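Each compound was tested at five concentrations against cells in 96-well plates for 48 hours. GI50: concentration for 50% inhibition of growth.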 Active and inactive are the calls of the source. Rule as the data show it: active = GI50 up to about 1.1 µM and inactive = higher.

How the values were obtained:
Experiment in all cases: DTP human tumour cell line panel, 48 h
CAKI-1 = test system: CAKI-1
CCRF-CEM = test system: CCRF-CEM
M14 = test system: M14
NCI-H226 = test system: NCI-H226
LOX IMVI = test system: LOX IMVI
OVCAR-8 = test system: OVCAR-8
EKVX = test system: EKVX
U-251 = test system: U-251
SW-620 = test system: SW-620
NCI-H23 = test system: NCI-H23
MDA-N = test system: MDA-N
SNB-19 = test system: SNB-19
OVCAR-5 = test system: OVCAR-5
DU-145 = test system: DU-145
SK-MEL-28 = test system: SK-MEL-28
SK-MEL-5 = test system: SK-MEL-5
ACHN = test system: ACHN
NCI/ADR-RES = test system: NCI/ADR-RES
RPMI-8226 = test system: RPMI-8226
SF-539 = test system: SF-539
IGROV-1 = test system: IGROV-1
A498 = test system: A498
MDA-MB-435 = test system: MDA-MB-435
MDA-MB-231 = test system: MDA-MB-231
TK-10 = test system: TK-10
UACC-257 = test system: UACC-257
SR = test system: SR
HCC 2998 = test system: HCC 2998
HOP-92 = test system: HOP-92
786-0 = test system: 786-0
HT-29 = test system: HT-29
SN12C = test system: SN12C
HL-60 = test system: HL-60
SNB-75 = test system: SNB-75
SK-OV-3 = test system: SK-OV-3
BT-549 = test system: BT-549
K562 = test system: K562
MCF7 = test system: MCF7
MOLT-4 = test system: MOLT-4
A549 = test system: A549
T47D = test system: T47D
NCI-H460 = test system: NCI-H460
OVCAR-3 = test system: OVCAR-3
HCT-116 = test system: HCT-116
SF-268 = test system: SF-268
Hs-578T = test system: Hs-578T
SK-MEL-2 = test system: SK-MEL-2
RXF 393 = test system: RXF 393
COLO 205 = test system: COLO 205
Malme-3M = test system: Malme-3M
OVCAR-4 = test system: OVCAR-4
HOP-62 = test system: HOP-62
UACC-62 = test system: UACC-62
NCI-H522 = test system: NCI-H522
UO-31 = test system: UO-31
SF-295 = test system: SF-295
HCT-15 = test system: HCT-15

COc1ccc(-c2cc(=O)c3c(OC)c(O)c(OC)cc3o2)cc1
GI50 (CAKI-1): 85.5 µM (inactive) | GI50 (CCRF-CEM): 38.4 µM (inactive) | GI50 (M14): 58.3 µM (inactive) | GI50 (NCI-H226): 70 µM (inactive) | GI50 (LOX IMVI): 36.9 µM (inactive) | GI50 (OVCAR-8): 56.6 µM (inactive) | GI50 (EKVX): 50.8 µM (inactive) | GI50 (U-251): 63.1 µM (inactive) | GI50 (SW-620): 54.3 µM (inactive) | GI50 (NCI-H23): 48.5 µM (inactive) | GI50 (MDA-N): 47.3 µM (inactive) | GI50 (SNB-19): 58.7 µM (inactive) | GI50 (OVCAR-5): > 100 µM (inactive) | GI50 (DU-145): 49.3 µM (inactive) | GI50 (SK-MEL-28): > 100 µM (inactive) | GI50 (SK-MEL-5): 23.4 µM (inactive) | GI50 (ACHN): 30.5 µM (inactive) | GI50 (NCI/ADR-RES): 29.1 µM (inactive) | GI50 (RPMI-8226): 27.8 µM (inactive) | GI50 (SF-539): 77.4 µM (inactive) | GI50 (IGROV-1): 33 µM (inactive) | GI50 (A498): 30 µM (inactive) | GI50 (MDA-MB-435): 42.4 µM (inactive) | GI50 (MDA-MB-231): 23.6 µM (inactive) | GI50 (TK-10): 28.3 µM (inactive) | GI50 (UACC-257): 36.1 µM (inactive) | GI50 (SR): 73.8 µM (inactive) | GI50 (HCC 2998): 47 µM (inactive) | GI50 (HOP-92): 20.9 µM (inactive) | GI50 (786-0): 47.4 µM (inactive) | GI50 (HT-29): 35.5 µM (inactive) | GI50 (SN12C): 26.9 µM (inactive) | GI50 (HL-60): 52 µM (inactive) | GI50 (SNB-75): 21.8 µM (inactive) | GI50 (SK-OV-3): 50.7 µM (inactive) | GI50 (BT-549): 55.3 µM (inactive) | GI50 (K562): 52.4 µM (inactive) | GI50 (MCF7): 42.7 µM (inactive) | GI50 (MOLT-4): 59.3 µM (inactive) | GI50 (A549): 42.5 µM (inactive) | GI50 (T47D): 23.1 µM (inactive) | GI50 (NCI-H460): 32.8 µM (inactive) | GI50 (OVCAR-3): 34 µM (inactive) | GI50 (HCT-116): 46.8 µM (inactive) | GI50 (SF-268): 91.4 µM (inactive) | GI50 (Hs-578T): 40.4 µM (inactive) | GI50 (SK-MEL-2): 57.1 µM (inactive) | GI50 (RXF 393): 36.6 µM (inactive) | GI50 (COLO 205): 49 µM (inactive) | GI50 (Malme-3M): 96.2 µM (inactive) | GI50 (OVCAR-4): 40.4 µM (inactive) | GI50 (HOP-62): 38.1 µM (inactive) | GI50 (UACC-62): 30.8 µM (inactive) | GI50 (NCI-H522): 17.9 µM (inactive) | GI50 (UO-31): 30.7 µM (inactive) | GI50 (SF-295): 30.8 µM (inactive) | GI50 (HCT-15): 35 µM
